# Reference: patent US7485641B2, “Substituted 3-amino-pyrrolidino-4-lactams” (Pfizer, Inc., priority 2006, dated 2009)
# Counter-ions that a name gives are not always drawn.
# Molecular target: T1, DPP-IV (Homo sapiens, UniProt P27487)
# T1 construct: purchased Enzyme Systems Products SPE-01
# Assay: In vitro assay for dipeptidyl peptidase inhibition
# Format: biochemical
# Details: Examples 156-162; n-value in brackets; IC50's or percent inhibition at 300 nM; read-out: DPP-IV inhibition
# T1 sequence (P27487 whole entry, species assumed): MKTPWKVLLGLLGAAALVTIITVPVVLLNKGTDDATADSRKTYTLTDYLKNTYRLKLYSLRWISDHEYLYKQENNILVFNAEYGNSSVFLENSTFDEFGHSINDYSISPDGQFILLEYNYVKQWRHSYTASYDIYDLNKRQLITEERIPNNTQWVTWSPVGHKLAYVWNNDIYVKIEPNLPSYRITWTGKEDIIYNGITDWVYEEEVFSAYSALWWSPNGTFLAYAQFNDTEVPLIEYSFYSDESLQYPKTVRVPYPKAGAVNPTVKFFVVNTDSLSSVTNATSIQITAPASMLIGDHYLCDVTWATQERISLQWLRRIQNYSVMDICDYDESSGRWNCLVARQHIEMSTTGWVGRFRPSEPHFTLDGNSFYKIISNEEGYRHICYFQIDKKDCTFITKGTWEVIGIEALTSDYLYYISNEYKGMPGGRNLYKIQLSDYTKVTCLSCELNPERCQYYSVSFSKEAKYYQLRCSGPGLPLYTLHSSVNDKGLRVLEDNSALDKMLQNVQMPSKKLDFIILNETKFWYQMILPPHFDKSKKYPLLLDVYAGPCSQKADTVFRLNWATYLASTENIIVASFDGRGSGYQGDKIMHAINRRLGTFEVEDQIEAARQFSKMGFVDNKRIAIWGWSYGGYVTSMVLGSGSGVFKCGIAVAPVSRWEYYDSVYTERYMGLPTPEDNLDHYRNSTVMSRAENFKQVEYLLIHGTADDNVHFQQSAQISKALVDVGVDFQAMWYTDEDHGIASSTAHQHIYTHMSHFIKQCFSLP
row,IC50 [nM],SMILES
1,79.3,"COc1ccc2oc(C(=O)N3C[C@H](N)[C@@H](N4CCCCC4=O)C3)cc2c1 [Example 159, 1-[(3S,4S)-4-Amino-1-(5-methoxy-benzofuran-2-carbonyl)-pyrrolidin-3-yl]-piperidin-2-onehydrochloride]"
2,212,"N[C@H]1CN(C(=O)c2cc3cc(Cl)ccc3o2)C[C@@H]1N1CCCCC1=O [Example 157, 1-((3S,4S)-4-amino-1-(5-chlorobenzofuran-2-carbonyl)pyrrolidin-3-yl)piperidin-2-onetrifluoroacetate]"

# Same assay, conditions: at 300 nM; n-value given in brackets
row,SMILES,DPP-IV Percent Inhibition at 300 nM
1,"N[C@H]1CN(c2ncnc(N3CC(Oc4ccc(F)c(F)c4)C3)n2)C[C@@H]1N1CCCCC1=O.O=C(O)C(F)(F)F [Example 49, 1-((3S,4S)-4-Amino-1-(4-(3-(3,4-difluorophenoxy)azetidin-1-yl)-1,3,5-triazin-2-yl)pyrrolidin-3-yl)piperidin-2-onetrifluoroacetate]",19.6%(4)

# Same assay, conditions: at 300 nM; n-value given in brackets; read-out: DPP-IV Percent Inhibition at 300 nM
row,SMILES,inhibition at 0.3 µM [%]
1,"CC(C)S(=O)(=O)c1ccc2c(N3C[C@H](N)[C@@H](N4CCCCC4=O)C3)ncnc2c1 [Example 138, 1-((3S,4S)-4-amino-1-(7-(isopropylsulfonyl)quinazolin-4-yl)pyrrolidin-3-yl)piperidin-2-one trifluoroacetate]",24.1
2,"CC(C)C(C)Oc1cc(N2C[C@H](N)[C@@H](N3CCCCC3=O)C2)ncn1 (stereo partly drawn) [Example 95, 1-((3S,4S)-4-Amino-1-(6-(3-methylbutan-2-yloxy)pyrimidin-4-yl)pyrrolidin-3-yl)piperidin-2-one trifluoroacetate]",17.7
3,"N[C@H]1CN(c2ncnc3cc(OS(=O)(=O)c4ccc(F)c(F)c4)ccc23)C[C@@H]1N1CCCCC1=O [Example 144, 4-((3S,4S)-3-amino-4-(2-oxopiperidin-1-yl)pyrrolidin-1-yl)quinazolin-7-yl 3,4-difluorobenzenesulfonate]",41

# Results, then the compound that gave them:
row,inhibition at 0.3 µM [%],SMILES
1,32.2,"N[C@H]1CN(c2cc(OC3CCCC3)ncn2)C[C@@H]1N1CCCCC1=O [Example 91, 1-((3S,4S)-4-Amino-1-(6-(cyclopentyloxy)pyrimidin-4-yl)pyrrolidin-3-yl)piperidin-2-onetrifluoroacetate]"
2,28.9,"N[C@H]1CN(c2cc(OCC(F)(F)F)ncn2)C[C@@H]1N1CCCCC1=O [Example 92, 1-((3S,4S)-4-Amino-1-(6-(2,2,2-trifluoroethoxy)pyrimidin-4-yl)pyrrolidin-3-yl)piperidin-2-one trifluoroacetate]"

# Same assay, conditions: n-value given in brackets; read-out: DPP-IV IC50
row,SMILES,IC50 [nM]
1,"CCC(CC)c1ccc2c(N3C[C@H](N)[C@@H](N4CCCCC4=O)C3)ncnc2c1 [Example 117, 1-((3S,4S)-4-amino-1-(7-(pentan-3-yl)quinazolin-4-yl)pyrrolidin-3-yl)piperidin-2-one]",206
2,"CCCOc1cc(N2C[C@H](N)[C@@H](N3CCCCC3=O)C2)ncn1 [Example 89, 1-((3S,4S)-4-Amino-1-(6-propoxypyrimidin-4-yl)pyrrolidin-3-yl)piperidin-2-one trifluoroacetate]",318
3,"COc1cccc2c(N3C[C@H](N)[C@@H](N4CCCCC4=O)C3)ncnc12 [Example 108, 1-((3S,4S)-4-Amino-1-(8-methoxyquinazolin-4-yl)pyrrolidin-3-yl)piperidin-2-one trifluoroacetate]",175
4,"N#Cc1ccc(Oc2ccc3c(N4C[C@H](N)[C@@H](N5CCCCC5=O)C4)ncnc3c2)nc1 [Example 121, 6-(4-((3S,4S)-3-amino-4-(2-oxopiperidin-1-yl)pyrrolidin-1-yl)quinazolin-7-yloxy)nicotinonitrile]",183
5,"COc1ccc2c(N3C[C@H](N)[C@@H](N4CCCCC4=O)C3)nncc2c1 [Example 146, 1-((3S,4S)-4-amino-1-(6-methoxyphthalazin-1-yl)pyrrolidin-3-yl)piperidin-2-one]",46.2
6,"N[C@H]1CN(c2cc(-c3ccc(O)nc3)ncn2)C[C@@H]1N1CCCCC1=O [Example 8, 1-{(3S,4S)-4-Amino-1-[6-(6-hydroxy-pyridin-3-yl)pyrimidin-4-yl]-pyrrolidin-3-yl}-piperidin-2-one]",27.1
7,"N[C@H]1CN(c2ncnc(N3CCCCC3)n2)C[C@@H]1N1CCCCC1=O [Example 47, 1-[(3S,4S)-4-Amino-1-(4-piperidin-1-yl-[1,3,5]triazin-2-yl)-pyrrolidin-3-yl]-piperidin-2-onetrifluoroacetate]",315
8,"N[C@H]1CN(c2ncnc3cc(Cl)ccc23)C[C@@H]1N1CCCCC1=O [Example 102, 1-[(3S,4S)-4-Amino-1-(7-chloro-quinazolin-4-yl)-pyrrolidin-3-yl]-piperidin-2-one hydrochloride]",61.4
9,"N[C@H]1CN(c2ncnc3cc(Oc4ccc(OC(F)(F)F)cc4)ccc23)C[C@@H]1N1CCCCC1=O [Example 133, 1-((3S,4S)-4-amino-1-(7-(4-(trifluoromethoxy)phenoxy)quinazolin-4-yl)pyrrolidin-3-yl)piperidin-2-one]",200
10,"N[C@H]1CN(c2ncnc3cc(F)ccc23)C[C@@H]1N1CCCCC1=O [Example 105, 1-((3S,4S)-4-Amino-1-(7-fluoroquinazolin-4-yl)pyrrolidin-3-yl)piperidin-2-one trifluoroacetate]",241
11,"Cc1ccc(C)c2c1CN(c1cc(N3C[C@H](N)[C@@H](N4CCCCC4=O)C3)ncn1)C2 [Example 55, 1-{(3S,4S)-4-Amino-1-[6-(4,7-dimethyl-1,3-dihydro-isoindol-2-yl)-pyrimidin-4-yl]-pyrrolidin-3-yl}-piperidin-2-one]",101
12,"COc1ccc(Oc2ccc3c(N4C[C@H](N)[C@@H](N5CCCCC5=O)C4)ncnc3c2)cc1 [Example 129, 1-((3S,4S)-4-amino-1-(7-(4-methoxyphenoxy)quinazolin-4-yl)pyrrolidin-3-yl)piperidin-2-one]",61.5

# Continued, values first:
row,IC50 [nM],SMILES
1,522,"N[C@H]1CN(c2cc(N3CCC(F)(F)C3)ncn2)C[C@@H]1N1CCCC1=O [Example 12, 1-((3S,4S)-4-Amino-1-(6-(3,3-difluoropyrrolidin-1-yl)pyrimidin-4-yl)pyrrolidin-3-yl)pyrrolidin-2-onedihydrochloride]"
2,90,"CC(=O)N[C@H]1CCN(c2ncnc(N3C[C@H](N)[C@@H](N4CCCCC4=O)C3)n2)C1 [Example 41, N-((S)-1-{4-[(3S,4S)-3-Amino-4-(2-oxo-piperidin-1-yl)-pyrrolidin-1-yl]-[1,3,5]triazin-2-yl}-pyrrolidin-3-yl)-acetamidetrifluoroacetate]"
3,141,"N[C@H]1CN(c2ncnc(N3CCS(=O)(=O)CC3)n2)C[C@@H]1N1CCCCC1=O [Example 68, 1-{(3S,4S)-4-Amino-1-[4-(1,1-dioxo-6-thiomorpholin-4-yl)-[1,3,5]triazin-2-yl]-pyrrolidin-3-yl}-piperidin-2-onetrifluoroacetate]"
4,218,"N[C@H]1CN(c2ncnc(N3CCC(F)(F)C3)c2F)C[C@@H]1N1CCCCC1=O [Example 21, 1-((3S,4S)-4-amino-1-(6-(3,3-difluoropyrrolidin-1-yl)-5-fluoropyrimidin-4-yl)pyrrolidin-3-yl)piperidin-2-one]"
5,59.1,"N[C@H]1CN(c2ncnc(-c3ccccc3)n2)C[C@@H]1N1CCCCC1=O [Example 85, 1-[(3S,4S)-4-Amino-1-(4-phenyl-[1,3,5]triazin-2-yl)-pyrrolidin-3-yl]-piperidin-2-one hydrochloride]"
6,47.8,"N[C@H]1CN(c2ncnc(N3CC[C@H](F)C3)n2)C[C@@H]1N1CC(F)(F)CCC1=O [Example 24, 1-((3S,4S)-4-amino-1-(4-((S)-3-fluoropyrrolidin-1-yl)-1,3,5-triazin-2-yl)pyrrolidin-3-yl)-5,5-difluoropiperidin-2-one]"
7,80.2,"N[C@H]1CN(c2ncnc(N3CC[C@H](F)C3)n2)C[C@@H]1N1CCCCC1=O [Example 25, 1-((3S,4S)-4-Amino-1-(4-((S)-3-fluoropyrrolidin-1-yl)-1,3,5-triazin-2-yl)pyrrolidin-3-yl)piperidin-2-onetrifluoroacetate]"
8,78.6,"N[C@H]1CN(C(=O)c2cc3cc(Cl)ccc3o2)C[C@@H]1N1CC(F)(F)CCC1=O [Example 153, 1-((3S,4S)-4-amino-1-(5-chlorobenzofuran-2-carbonyl)pyrrolidin-3-yl)-5,5-difluoropiperidin-2-one]"
9,45.1,"N[C@H]1CN(c2cc(N3CCC(F)(F)C3)nc(C(F)(F)F)n2)C[C@@H]1N1CCCCC1=O [Example 14, 1-((3S,4S)-4-amino-1-(6-(3,3-difluoropyrrolidin-1-yl)-2-(trifluoromethyl)pyrimidin-4-yl)pyrrolidin-3-yl)piperidin-2-one]"
10,1990,"N[C@H]1CN(c2cc(N3CCc4cncnc4C3)ncn2)C[C@@H]1N1CCCC1=O [Example 63, 1-((3S,4S)-4-Amino-1-(6-(5,6-dihydropyrido[3,4-d]pyrimidin-7(8H)-yl)pyrimidin-4-yl)pyrrolidin-3-yl)pyrrolidin-2-onedihydrochloride]"
11,154,"N[C@H]1CN(c2ncnc(N3C[C@@H](F)[C@H](F)C3)n2)C[C@@H]1N1CCCCC1=O [Example 29, 1-((3S,4S)-4-Amino-1-(4-((3R,4R)-3,4-difluoropyrrolidin-1-yl)-1,3,5-triazin-2-yl)pyrrolidin-3-yl)piperidin-2-onetrifluoroacetate]"
12,37.3,"Cc1nc(N2CC[C@H](F)C2)cc(N2C[C@H](N)[C@@H](N3CC(F)(F)CCC3=O)C2)n1 [Example 26, 1-((3S,4S)-4-amino-1-(6-((S)-3-fluoropyrrolidin-1-yl)-2-methylpyrimidin-4-yl)pyrrolidin-3-yl)-5,5-difluoropiperidin-2-one]"
13,415,"N[C@H]1CN(c2ncnc3[nH]cnc23)C[C@@H]1N1CCCCC1=O [Example 148, 1-[(3S,4S)-4-Amino-1-(9H-purin-6-yl)-pyrrolidin-3-yl]-piperidin-2-one hydrochloride]"
14,92.4,"N[C@H]1CN(c2cc(N3Cc4ccc(C(F)(F)F)cc4C3)ncn2)C[C@@H]1N1CCCCC1=O [Example 53, 1-((3S,4S)-4-amino-1-(6-(5-(trifluoromethyl)isoindolin-2-yl)pyrimidin-4-yl)pyrrolidin-3-yl)piperidin-2-onetrifluoroacetate]"
